# Reference: PubChem BioAssay (NCI)
#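 Where inhibition never reached the appropriate level, the endpoint shown equals the highest concentration tested. Otherwise, values were interpolated linearly from a five-concentration, 48-hour dose response in 96-well plates. TGI marks complete inhibition of growth.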
# Legend:
# Assay in all cases: NCI tumour cell line growth inhibition, 48 h
# HCT-15 colon = tested on: HCT-15 colon
# HCT-116 colon = tested on: HCT-116 colon
# SK-MEL-28 melanoma = tested on: SK-MEL-28 melanoma
# SK-MEL-2 melanoma = tested on: SK-MEL-2 melanoma
# HCC-2998 colon = tested on: HCC-2998 colon
# SF-539 CNS = tested on: SF-539 CNS
# U251 CNS = tested on: U251 CNS
# OVCAR-3 ovarian = tested on: OVCAR-3 ovarian
# 786-0 renal = tested on: 786-0 renal
# A498 renal = tested on: A498 renal
# CAKI-1 renal = tested on: CAKI-1 renal
Structure (SMILES),TGI (HCT-15 colon) [µM],TGI (HCT-116 colon) [µM],TGI (SK-MEL-28 melanoma) [µM],TGI (SK-MEL-2 melanoma) [µM],TGI (HCC-2998 colon) [µM],TGI (SF-539 CNS) [µM],TGI (U251 CNS) [µM],TGI (OVCAR-3 ovarian) [µM],TGI (786-0 renal) [µM],TGI (A498 renal) [µM],TGI (CAKI-1 renal) [µM]
CSc1csc(-c2ccc(-c3ccc(-c4cc(SC)cs4)s3)s2)c1,> 100,> 100,> 100,> 100,> 100,> 100,> 100,> 100,> 100,–,–
N#Cc1sc2c(c1OC(=O)c1ccc(C(F)(F)F)cc1)c(=O)n(-c1ccccc1)c(=S)n2-c1ccccc1,80.7,74.6,> 100,–,> 100,59,97,55.5,> 100,90.2,90.9
Clc1sc(Cl)c2c1[C@@H](Cl)C[C@@H]2Br,> 100,> 100,> 100,> 100,> 100,–,> 100,–,> 100,–,> 100
CC1OC(O[C@H]2C3C=CO[C@@H](OC4OC(CO)C(O)C(O)C4O)C3[C@@]3(COC(=O)/C=C/c4ccccc4)O[C@@H]23)C(O)C(O)C1O (some centres undefined),> 100,> 100,> 100,> 100,> 100,–,> 100,> 100,> 100,> 100,> 100
COc1ccc(-c2nc3ccccc3c(=S)n2OC(C)=O)cc1,> 25,> 25,> 25,> 25,> 25,> 25,> 25,–,> 25,> 25,> 25
CCOC(=O)/C=C1/C(CCCOCc2ccccc2)C2CCCC23CC2(CCN13)OCCO2 (centres undefined),51.5,–,51.3,36.9,> 100,–,51.4,49.4,–,50.3,–
COc1cc(C=O)ccc1O,> 100,> 100,> 100,–,> 100,> 100,> 100,> 100,> 100,–,> 100
Cc1cc(C)nc(NC(=S)Nc2ccc([N+](=O)[O-])cc2)c1,> 100,> 100,> 100,> 100,> 100,> 100,> 100,–,> 100,> 100,> 100
O=C1NC(O)CCN1C1OC(CO)C(O)C1O (centres undefined),> 250,> 141,> 250,> 158,> 250,> 250,> 169,> 250,–,> 250,> 250
COC(=O)c1ccccc1CC1Cc2cccc(C)c2C1=O (centres undefined),73.3,> 100,94.5,53.2,> 100,> 100,> 100,> 100,> 100,–,> 100
CCC(C)(C)n1c(C)nc2c1C(=O)c1ccccc1C2=O,> 100,35.8,> 100,42.3,> 100,> 100,> 100,> 100,> 100,–,–
CN(C)Cc1cc(C(=O)/C=C/c2ccc([N+](=O)[O-])cc2)cc(CN(C)C)c1O,25.1,13.1,–,30.1,32.5,40.5,14.9,20.6,15.2,23.9,–
COc1ccc(CC(N)=O)cc1OC,> 1250,> 1250,> 1250,> 1250,> 1250,> 1250,> 1250,> 1250,–,> 1250,> 575
O=C(OCC(Cl)(Cl)Cl)N1CC[C@H](C2CCCCC2)C1,34.8,31.6,–,30.4,34.3,–,13.6,30.3,33.1,–,88.9
COc1ccc(NC(=O)CSc2nnc(-c3ccc(NC(C)=O)cc3)o2)cc1,30.2,29.4,34.7,38,35.4,–,33.7,35.5,39.1,30.2,–
CNc1[nH]c(=S)nc2sc3c(c12)CCCC3,> 75,> 75,> 75,> 75,> 75,–,> 75,> 75,> 75,> 75,> 75
Cc1ccsc1/C=N/Nc1cnccn1,> 100,> 100,> 100,> 100,> 100,–,> 100,> 100,> 100,> 100,> 100
CCOC(=O)CNC(=O)NC12CC3CC(CC(C3)C1)C2,> 550,> 550,> 539,372,319,> 550,> 550,398,–,462,> 487
O=C1CSC2(CC(/C=C/c3cccs3)=NN2c2cccc(S(=O)(=O)O)c2)N1c1nc2ccccc2s1 (centres undefined),> 100,> 100,> 100,> 100,> 100,> 100,> 100,–,> 100,92.7,> 100
O=C(CNc1ccc(Cl)cc1Cl)Nn1c(-c2ccccc2)nc2ccccc2c1=O,33.5,31.3,43.7,–,31.8,35.6,–,31.3,35.1,–,–
CCCN(CCC)c1c([N+](=O)[O-])cc(C(=O)N(CC)CC)cc1[N+](=O)[O-],90.9,27.2,64.6,43.5,> 100,58.3,32.7,33.3,> 100,–,> 100
Nc1c(S(=O)(=O)c2ccc(Cl)cc2)c2nc3ccccc3nc2n2ccnc12,> 100,> 100,> 100,> 100,> 100,36.2,> 100,> 100,> 100,–,–
